Results published in patent publication EP1671644A2, “Pharmaceutical compositions containing Lysostaphin alone or in combination with an antibiiotic for the treatment of Staphylococcal infections” (priority 1997, dated 1999).
Marks after values point to notes of the source that are not given here.

What was measured:
S. aureus strain AG461 = assay: Time-kill experiment (Figure 1); format: cell-based, Staphylococcus aureus; conditions: vancomycin 2 and 16 µg/ml (one and eight times MIC); three hours of contact
Protocol: The bactericidal activity of lysostaphin against S. aureus was also studied by means of time-kill experiments. In one experiment of this type, S. aureus strain AG461, a methicillin-resistant clinical isolate from Genoa, Italy, was inoculated into Mueller-Hinton broth (Difco) and grown at 37°C with gentle shaking until it reached approximately 10^8 viable cells per ml (CFU/ml), as estimated from the absorbance of the culture at 600 nm. The culture was then diluted with fresh broth to approximately 10^6 CFU/ml and 5 ml aliquots were placed in several different flasks for exposure to different concentrations of antibacterial agents. Incubation was continued, with gentle shaking, at 37°C, and samples were withdrawn at intervals for determination of viable cells. Serial 10-fold dilutions of the samples were made in sterile saline (0.9% NaCl in distilled water) and duplicate 0.1 ml aliquots of appropriate dilutions were plated on Tryptic Soy agar plates (Remel) using the agar inclusion method. (In this method, the aliquot to be plated is added to 2.5 ml of top agar, which is mixed and poured onto a plate. Top agar consisted of molten Tryptic Soy agar (Difco) diluted 2-fold with Difco Tryptic Soy broth to give a final agar concentration of 0.75%, w/v.) The plates were incubated for 24-48 hours at 36°C and the colonies were counted manually. […]

S. aureus Smith = assay: Acute infection model in mice (intraperitoneal infection); format: in vivo
Protocol: The efficacy of lysostaphin was compared to that of vancomycin in an acute infection model in mice. S. aureus Smith was cultured overnight, with moderate agitation, in Veal Infusion broth (Difco) and diluted in broth containing 5% hog gastric mucin (Difco). Male Swiss~Webster mice (Taconic Farms, Germantown, NY) weighing approximately 20 grams were infected intraperitoneally with 10^5-10^6 viable cells, approximately tenfold the inoculum that reproducibly killed all untreated animals within 48 h. There were six mice in each treatment group. Lysostaphin was administered intravenously (in 0.1 ml 5% dextrose for injection) or subcutaneously (in 0.2 ml), within 10 min of infection. Vancomycin was administered subcutaneously.

[1] = tested on: methicillin-resistant S. aureus strain (MRSA 27619); assay: Experimental aortic valve endocarditis in rabbits; format: in vivo; conditions: vancomycin 30 mg/kg twice daily iv, three days
Protocol: Aortic valve endocarditis was established in New Zealand white rabbits weighing approximately 3 kg. Rabbits were anesthetized and the right carotid artery surgically exposed and cannulated with a polyethylene catheter which was advanced into the left ventricle of the heart. After at least 24 h, the rabbits were infected intravenously with 10^6-10^7 cells of a methicillin-resistant S. aureus strain (MRSA 27619). Twenty-four hours later, the animals were randomly assigned to different treatment groups: untreated control (9 rabbits); positive control, vancomycin 30 mg/kg twice daily (15); lysostaphin 5 mg/kg three times daily (11); lysostaphin 5 mg/kg once daily (10); lysostaphin 5 mg/kg once daily + vancomycin 30 mg/kg twice daily (11). Any rabbits whose infection was not confirmed by pre-treatment blood culture were eliminated.
All treatments were intravenous and were carried out for three days. The state of health of the rabbits was assessed at intervals. The rabbits were sacrificed 18 h after the last treatment. Aortic vegetations were removed and weighed and processed to determine the number of viable bacteria, expressed as log10CFU/gram. The limit of detection is 10^2 CFU/gram (log10CFU/gram=2.0). The mean titers of bacteria per gram were compared by one-way analysis of variance. The Student-Newman-Keuls test was used to adjust for multiple comparisons. […]

[2] = tested on: methicillin-resistant VISA strain of S. aureus; assay: Endocarditis in rabbits caused by a VISA strain; format: in vivo; conditions: vancomycin 30 mg/kg twice daily

CN[C@H](CC(C)C)C(=O)N[C@H]1C(=O)N[C@@H](CC(N)=O)C(=O)N[C@H]2C(=O)N[C@H]3C(=O)N[C@H](C(=O)N[C@H](C(=O)O)c4cc(O)cc(O)c4-c4cc3ccc4O)[C@H](O)c3ccc(c(Cl)c3)Oc3cc2cc(c3O[C@@H]2O[C@H](CO)[C@@H](O)[C@H](O)[C@H]2O[C@H]2C[C@](C)(N)[C@H](O)[C@H](C)O2)Oc2ccc(cc2Cl)[C@H]1O [vancomycin]
bactericidal action (S. aureus strain AG461): very little killing of the bacteria | % survival (S. aureus Smith; 0.63 mg/kg sc): 0% | % survival (S. aureus Smith; 1.25 mg/kg sc): 83% | % survival (S. aureus Smith; 2.5 mg/kg sc): 100% | % survival (S. aureus Smith; 5 mg/kg sc): 100% | % survival (S. aureus Smith; Table 4 experiment, 0.63 mg/kg, route not given): 0% | % survival (S. aureus Smith; Table 4 experiment, 1.25 mg/kg, route not given): 83% | % survival (S. aureus Smith; Table 4 experiment, 2.5 mg/kg, route not given): 100% | Mean log10CFU/gram of vegetation ± standard deviation [1]: 5.91 ± 1.67^a log10CFU/gram | Number of sterile vegetations /total animals treated [1]: 0/15 | CFU/g vegetation ([2]; expressed as log10 of the mean): 6.95 CFU/g vegetation | sterile/total vegetations [2]: 0/13
